In brackets after ≈: the same amount, converted by molar mass.
Experiments:
[1] = system: Escherichia coli; experiment: Antibacterial activity against Escherichia coli K12 carrying pR3521 encoding SCO1 by agar dilution technique; format: functional
[2] = system: Escherichia coli; experiment: Antibacterial activity against Escherichia coli DH5-alpha by agar dilution technique; format: functional; conditions: DH5alpha
[3] = system: Escherichia coli; experiment: Antibacterial activity against Escherichia coli DH5-alpha carrying pSCO1 encoding SCO1 by agar dilution technique; format: functional; conditions: DH5alpha
[4] = target: T1, Beta-lactamase SCO-1 (Escherichia coli) (UniProt A1E3K9); experiment: Activity of Escherichia coli beta-lactamase SCO1 relative to penicillin G
T1 sequence (whole entry): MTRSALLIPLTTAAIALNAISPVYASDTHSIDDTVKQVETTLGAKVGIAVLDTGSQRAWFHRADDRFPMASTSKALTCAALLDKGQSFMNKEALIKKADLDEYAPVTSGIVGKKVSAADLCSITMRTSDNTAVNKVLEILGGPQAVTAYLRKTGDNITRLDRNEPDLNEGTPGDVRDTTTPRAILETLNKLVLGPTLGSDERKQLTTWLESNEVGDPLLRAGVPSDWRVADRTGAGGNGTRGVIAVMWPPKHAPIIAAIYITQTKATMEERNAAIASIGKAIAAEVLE

[5] = system: Escherichia coli; experiment: Activity of Escherichia coli K12 beta-lactamase CARB1 relative to penicillin G
[6] = target: Beta-lactamase TEM (Escherichia coli) (UniProt P62593); experiment: Activity of Escherichia coli K12 beta-lactamase TEM1 relative to penicillin G
[7] = Inhibition of Escherichia coli K12 CARB1
[8] = system: Escherichia coli; experiment: Antibacterial activity against Escherichia coli 3521r carrying pR352 encoding SCO1 by agar dilution technique; format: functional
[9] = target: Beta-lactamase TEM (Escherichia coli) (UniProt P62593); experiment: Inhibition of Escherichia coli TEM1

Chain of Beta-lactamase TEM (Escherichia coli) (P62593 whole entry): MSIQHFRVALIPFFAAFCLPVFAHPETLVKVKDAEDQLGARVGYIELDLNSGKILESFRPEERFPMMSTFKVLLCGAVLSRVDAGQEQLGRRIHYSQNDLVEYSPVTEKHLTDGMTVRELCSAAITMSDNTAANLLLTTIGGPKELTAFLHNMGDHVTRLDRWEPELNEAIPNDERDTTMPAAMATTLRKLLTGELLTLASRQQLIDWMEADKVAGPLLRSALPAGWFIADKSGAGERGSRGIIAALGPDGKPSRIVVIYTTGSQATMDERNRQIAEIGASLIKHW

Compound	MIC [1] [µg/mL]	MIC [2] [µg/mL]	MIC [3] [µg/mL]	Activity [4]	Activity [5]	Activity [6]	IC50 [7] [nM]	MIC [8] [µg/mL]	Activity [9] [µM]
CO/N=C(\C(=O)N[C@@H]1C(=O)N2C(C(=O)[O-])=C(C[N+]3(C)CCCC3)CS[C@H]12)c1csc(N)n1	0.25 (≈ 0.52 µM)	≤ 0.12	≤ 0.12						
CC1(C)S[C@@H]2[C@H](NC(=O)[C@H](N)c3ccccc3)C(=O)N2[C@H]1C(=O)O				84					
Cc1onc(-c2ccccc2)c1C(=O)N[C@@H]1C(=O)N2[C@@H]1SC(C)(C)[C@@H]2C(=O)O				4	12				
O=C(Cc1cccs1)N[C@@H]1C(=O)N2C(C(=O)[O-])=C(C[n+]3ccccc3)CS[C@H]12				21	15	154			
CC1(C)C(C(=O)O)N2C(=O)C[C@H]2S1(=O)=O (single isomer, unassigned) [SULBACTAM]							5000		
CC1(C)S[C@@H]2[C@H](NC(=O)[C@H](N)c3ccc(O)cc3)C(=O)N2[C@H]1C(=O)O [AMOXICILLIN]	≥ 256	4 (≈ 10.9 µM)	≥ 256		100	108		≥ 256	
C[C@H]1[C@H](NC(=O)/C(=N\OC(C)(C)C(=O)O)c2csc(N)n2)C(=O)N1S(=O)(=O)O [AZTREONAM]	1 (≈ 2.3 µM)	≤ 0.12	≤ 0.12					1 (≈ 2.3 µM)	
CC1(C)S[C@@H]2[C@H](NC(=O)C(C(=O)O)c3ccccc3)C(=O)N2[C@H]1C(=O)O (some centres undefined) [CARBENICILLIN]	64 (≈ 169 µM)	1 (≈ 2.64 µM)	128 (≈ 338 µM)	78	146	15		128 (≈ 338 µM)	
CO/N=C(\C(=O)N[C@@H]1C(=O)N2C(C(=O)O)=C(COC(C)=O)CS[C@H]12)c1csc(N)n1 [CEFOTAXIME]	4 (≈ 8.78 µM)	≤ 0.12	≤ 0.12	< 1	< 1	< 1		8 (≈ 17.6 µM)	
CO[C@@]1(NC(=O)Cc2cccs2)C(=O)N2C(C(=O)O)=C(COC(N)=O)CS[C@@H]21 [CEFOXITIN]	8 (≈ 18.7 µM)	2 (≈ 4.68 µM)	2 (≈ 4.68 µM)					8 (≈ 18.7 µM)	
CC(C)(O/N=C(\C(=O)N[C@@H]1C(=O)N2C(C(=O)[O-])=C(C[n+]3ccccc3)CS[C@H]12)c1csc(N)n1)C(=O)O [CEFTAZIDIME]	32 (≈ 58.5 µM)	≤ 0.12	≤ 0.12	< 1	< 1	< 1		32 (≈ 58.5 µM)	
CO/N=C(\C(=O)N[C@@H]1C(=O)N2C(C(=O)O)=C(COC(N)=O)CS[C@H]12)c1ccco1 [CEFUROXIME]	32 (≈ 75.4 µM)	1 (≈ 2.36 µM)	1 (≈ 2.36 µM)					32 (≈ 75.4 µM)	
CC(=O)OCC1=C(C(=O)O)N2C(=O)[C@@H](NC(=O)Cc3cccs3)[C@H]2SC1 [CEPHALOTHIN]	≥ 256	2 (≈ 5.04 µM)	8 (≈ 20.2 µM)	3	6	27		≥ 256	
O=C(O)[C@H]1/C(=C/CO)O[C@@H]2CC(=O)N21 [CLAVULANIC ACID]							100		3
C[C@@H](O)[C@H]1C(=O)N2C(C(=O)O)=C(SCCNC=N)C[C@H]12 [IMIPENEM ANHYDROUS]		≤ 0.12	≤ 0.12						
CCN1CCN(C(=O)N[C@@H](C(=O)N[C@@H]2C(=O)N3[C@@H]2SC(C)(C)[C@@H]3C(=O)O)c2ccccc2)C(=O)C1=O [PIPERACILLIN]	64 (≈ 124 µM)	2 (≈ 3.86 µM)	32 (≈ 61.8 µM)					128 (≈ 247 µM)	
C[C@]1(Cn2ccnn2)[C@H](C(=O)O)N2C(=O)C[C@H]2S1(=O)=O [TAZOBACTAM]							80		
CC1(C)S[C@@H]2[C@H](NC(=O)[C@H](C(=O)O)c3ccsc3)C(=O)N2[C@H]1C(=O)O [TICARCILLIN]	≥ 256	2 (≈ 5.2 µM)	≥ 256					≥ 256	

Reference: ChEMBL document CHEMBL1145510, “SCO-1, a novel plasmid-mediated class A beta-lactamase with carbenicillinase characteristics from Escherichia coli” (Antimicrob Agents Chemother, 2007)
